The target of assay [1] is T1, mouse ENT-1 transporter (Mus musculus, UniProt Q9JIM1).
T1 construct: expressed in transfected cells
T1 sequence (Q9JIM1 1-460): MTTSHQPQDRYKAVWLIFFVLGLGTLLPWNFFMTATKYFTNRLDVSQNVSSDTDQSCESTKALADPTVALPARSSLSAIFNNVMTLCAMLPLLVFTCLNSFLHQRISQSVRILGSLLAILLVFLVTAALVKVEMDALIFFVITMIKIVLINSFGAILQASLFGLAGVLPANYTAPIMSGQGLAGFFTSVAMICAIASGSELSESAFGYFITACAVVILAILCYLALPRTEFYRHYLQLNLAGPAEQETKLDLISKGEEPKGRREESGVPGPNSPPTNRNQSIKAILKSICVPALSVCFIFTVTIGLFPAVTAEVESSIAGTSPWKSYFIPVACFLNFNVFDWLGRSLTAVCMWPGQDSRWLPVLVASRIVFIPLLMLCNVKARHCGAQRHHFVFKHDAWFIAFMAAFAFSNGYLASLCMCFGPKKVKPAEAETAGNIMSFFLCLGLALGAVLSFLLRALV
Put plainly: ENT1 adenosine uptake inhibition ([3H]-adenosine transport activity). The assay is classed as cell-based. As to conditions: stable cells expressing mouse ENT-1; [2,8-3H]-adenosine 6 nM, 20 min. On the procedure:
To measure adenosine transport activity of ENT-1 mammalian cells, stable cells expressing the mouse ENT-1 transporter were plated on day 1 in 96-well culture plates at the density of 60,000 cells/well, in complete DMEM/F12 medium supplemented with glutamax, 10% FBS and 10 μg/ml puromycin. On day 2, the medium was aspirated and the cells were washed twice with uptake buffer (10 mM Hepes-Tris, pH 7.4 containing 150 mM NaCl, 1 mM CaCl2, 2.5 mM KCl, 2.5 mM MgSO4, 10 mM D-glucose) (UB). For inhibition experiments, cells were then incubated at RT with various concentrations of compounds with 1% DMSO final. Non-specific uptake was defined in the presence of 10 μM S-(4-Nitrobenzyl)-6-thioinosine (NBTI, Sigma Cat #N2255).
A solution containing [2,8-^3H]-adenosine 6 nM (40 Ci/mmol, American Radiolabeled chemicals Inc, Cat #ART 0287A) was then immediately added to the wells. The plates were then incubated for 20 min with gentle shaking and the reaction was stopped by aspiration of the mixture and washing (three times) with ice-cold UB. The cells were lysed by the addition of scintillation liquid, shaken 3 hours and the radioactivity in the cells was estimated using a microplates scintillation counter (TopCount NXT, Packard).

The subject of assay [2] is L-687,414-induced hyperlocomotion. Kind of assay: L-687,414-induced hyperlocomotion. Type of assay: in vivo, mouse. As to conditions: mice; dose 30 mg/kg ip, 15 min before s.c. 50 mg/kg L-687,414. As to the method: The described compounds of formula I reduce L-687,414-induced hyperlocomotion. This was assessed by using a computerized Digiscan 16 Animal Activity Monitoring System (Omnitech Electronics, Columbus, Ohio) to quantify locomotor activity. Animals were kept under a 12 h light/dark cycle and experiments were performed during the light period. Each activity monitoring chamber consisted of a Plexiglas box (41×41×28 cm; W×L×H) with sawdust bedding on the floor surrounded by invisible horizontal and vertical infrared sensor beams. The test boxes were divided by a Plexiglas cross providing each mouse with 20×20 cm of moving space. Cages were connected to a Digiscan Analyzer linked to a computer that constantly collected the beam status information. Records of photocell beam interruptions for individual animals were taken every 5 min over the duration of the experimental session and the sum of the first 6 periods was used as the final parameter. At least 8 mice were used in each treatment group. Compounds were administered i.p 15 min before a s.c. injection of 50 mg/kg of L-687,414. […] Horizontal activity was then recorded for a 30-min time period. The % inhibition of L-687,414-induced hyperlocomotion was calculated according to the equation: ((Veh+L−687,414 horizontal activity−drug+L−687,414 horizontal activity)/Veh+L−687,414 horizontal activity)×100 […]

For assay [3], the system named is behaviors of compound-treated mice. Put plainly: SmartCube behavioral signature similarity analysis. Type of assay: in vivo, mouse. As to conditions: for discrimination rate vs Clozapine (1.0 mg/kg) / discrimination rate vs Olanzapine (0.25 mg/kg) / discrimination rate vs Risperidone (0.06 mg/kg): SmartCube, test compound at 3 mg/kg i.p., rate of 0.70 or lower = similar; for SmartCube behavioral signature classification: mice, result in words. From the text:
authors described that hyperlocomotion induced by L-687,414 was inhibited by a series of known antipsychotic drugs. […] These findings predict antipsychotic activity for the present compounds, making them useful for the treatment of positive (psychosis) and negative symptoms of schizophrenia, substance abuse, alcohol and drug addiction, obsessive-compulsive disorders, cognitive impairment, bipolar disorders, mood disorders, major depression, resistant depression, anxiety disorders, Alzheimer's disease, autism, Parkinson's disease, chronic pain, borderline personality disorder, sleep disturbances, chronic fatigue syndrome, stiffness, antiinflammatory effects in arthritis and balance problems, epilepsy and neurodevelopmental disorders with co morbid epilepsy. In addition to the reversal of L-687,414 induced hyperlocomotion experiment as described above, some compounds of the present invention have been tested in SmartCube®, an automated system in which the behaviors of compound-treated mice in response to multiple challenges are captured by digital video and analyzed with computer algorithms (Roberds et al., Frontiers in Neuroscience, 2011, Vol. 5, Art. 103, 1-4; Vadim Alexandrov, Dani Brunner, Taleen Hanania, Emer Leahy Eur. J. Pharmacol. 2015, 750, 82-99). In this way, the neuro-pharmacological effects of a test compound can be predicted by similarity to major classes of compounds, such as antipsychotics, anxiolytics and antidepressants.
SmartCube® was used to compare the behavioral signature of a test compound to a database of behavioral signatures obtained from a large set of clinically approved reference drugs, grouped per indications. In this way, the neuro-pharmacological effects of a test compound can be predicted by similarity to major classes of compounds, such as antipsychotics, anxiolytics and antidepressants. This approach is ideally suited to screen collections of existing drugs or drug candidates with previously unknown neuropharmacology, which could expedite the development of new and unexpected treatments for psychiatric disorders.
Some compounds of the present invention were injected i.p. at different doses 15 minutes before the test. At least 8 mice were used in each treatment group. Digital videos of the subjects were processed with computer vision algorithms to extract over 2000 dependent measures including frequency and duration of many different behavioral states. The results of the classifications are presented as bar charts for each compound and dose (mg/kg), the Y-axis indicates the relative probability that the test compound will show efficacy in the specific CNS indication.
Compounds of the present invention show similar signatures to those of atypical antipsychotics. An independent analysis was performed on the unclassified data to determine the similarity of the example compounds to active doses of known atypical antipsychotics. For this analysis, we use discrimination rate as the measure of separability between the two drugs, i.e. one drug's “distinguishability” from another. A rate equal to 50% (or 0.5) corresponds to zero distinguishability. […] In most cases, the example compounds show a similarity to risperidone, clozapine and olanzapine with a discrimination rate of ≤0.70.

The term IC50 denotes the midpoint of a concentration-inhibition curve. As for `COc1cncc(N2C(=O)C(C)(C)c3ccc(-c4cnc(C)nc4)cc32)c1` [Example 2, 1-(5-Methoxypyridin-3-yl)-3,3-dimethyl-6-(2-methylpyrimidin-5-yl)indolin-2-one], 438 nM corresponded to half-maximal inhibition in assay [1] (IC50). Further, the “Inhibition, ip of L-687,414-induced hyperlocomotion” value in assay [2] came to 93.6%. Moreover, in assay [3], the “discrimination rate vs Clozapine (1.0 mg/kg)” value came to 0.58, the “discrimination rate vs Olanzapine (0.25 mg/kg)” value is reported as 0.68, the “discrimination rate vs Risperidone (0.06 mg/kg)” value worked out at 0.51 and the “SmartCube behavioral signature classification” value is listed as “similarity to atypical antipsychotics”.
`COc1ccc(N2C(=O)C(C)(C)c3ccc(-c4cnc(C)nc4)cc32)nn1` [Example 12, 1-(6-Methoxypyridazin-3-yl)-3,3-dimethyl-6-(2-methylpyrimidin-5-yl)indolin-2-one]: in assay [1], the half-inhibitory concentration (IC50) was determined as 34.8 nM. In addition, the “Inhibition, ip of L-687,414-induced hyperlocomotion” value in assay [2] came to 94.6%. Also, in assay [3], the “discrimination rate vs Clozapine (1.0 mg/kg)” value is given as 0.67, the “discrimination rate vs Olanzapine (0.25 mg/kg)” value was found to be 0.63, the “discrimination rate vs Risperidone (0.06 mg/kg)” value was determined as 0.56 and the “SmartCube behavioral signature classification” value is listed as “similarity to atypical antipsychotics”.

Source of the values: patent US10457667B2, “Indolin-2-one derivatives” (Hoffmann-La Roche Inc., priority 2015, dated 2019).
